Laboratory results: patent US20120269913A1, “CRUDE CAFFEINE COMPLEX, IMPROVED FOOD PRODUCTS USING THE CRUDE CAFFEINE COMPLEX, AND METHODS OF USE THEREOF” (priority 2009, published 2012)
Where two headings read alike, the source gives them in different places.

Experiments:
[1] = ORAC assay adapted for the linoleate microemulsion system, combination with α-tocopherol; details: in combination with α-tocopherol; 100% = additive, >100% = synergistic
Text: Using an ORAC assay adapted for the linoleate microemulsion system (Sim, W. L. S. et al., Journal of Agricultural and Food Chemistry 57: 3409-3414 (2009)), we determined the antioxidant activity of α-tocopherol (a form of vitamin E) combined with crude caffeine, ascorbic acid, and chlorogenic acid. Data were expressed as relative ORAC: a relative ORAC of 100% means that the antioxidant activity of the mixture equaled the sum of each component's antioxidant activity (additive effect), whereas a relative ORAC greater than 100% means that the antioxidant activity of the mixture was greater than the sum of each component's antioxidant activity (synergistic effect).
In a 15-mL test tube, methyl linoleate (1.2 g), Tween-20 (2.9 g), n-butanol (1.5 g), and potassium phosphate buffer (4.4 g) were vortexed until the resulting solution was clear. […] A control well containing 200 μL of microemulsion and 40 μL of phosphate buffer was used to normalize the fluorescence reading. The reaction kinetics were monitored at 37° C. for 2 h, with readings every 2 min, by a Synergy HT microplate fluorescent reader (Biotek Instruments Inc.). The microplate reader was fitted with an excitation filter at 485 nm, an emission filter of 590 nm, and an oxygen sensor biosystem, and the plate was shaken for 20 s at low intensity before each reading to ensure sufficient mixing. […]

[2] = tested on: human skeletal muscle cells; experiment: Glucose uptake (3H-2-deoxyglucose) in human skeletal muscle cells; format: cell-based; details: about 0.01 mg/mL, p<0.05
Protocol: (§1) The effect of the crude caffeine extract of Example 1 on glucose uptake in both human adipocytes (fat) and skeletal muscle cells (SMC) was tested (Zen Bio Research, Triangle Park, N.C.).
(§2) Data were analyzed by one-way ANOVA followed by Tukey's post hoc test for multiple comparisons. In FIG. 6, results are expressed as mean±SD. The asterisk * denotes P<0.05 compared with human skeletal muscle cells; the carrot top A denotes P<0.05 compared with untreated human adipocytes.
(§3) Glucose uptake. The in vitro effects of crude caffeine on glucose uptake were assessed with human adipocytes and skeletal muscle cells (Zen-Bio, Research Triangle Park, N.C.). Briefly, primary human subcutaneous adipocytes or primary human myoblasts were differentiated in 96-well microplates. […] All samples, including the positive and negative controls, were tested in triplicate. After a 2-h incubation at 37° C. and 5% CO2, the cells were washed with PBS and lysed. The cell lysate was mixed with scintillation fluid and radioactivity of each well was measured as counts per minute (CPM).

[3] = Oxygen radical absorbance capacity, hydrophilic fraction (ORAChydro); details: crude caffeine complex of Example 1 vs pure caffeine
Protocol: Oxygen radical absorbance capacity. To determine antioxidant values of the hydrophilic fraction (ORAChydro), 5 g crude caffeine was extracted with 20 mL acetone/water (50:50 v/v) on an orbital shaker at room temperature for 1 h. The mixtures were centrifuged at 1972×g in a Rotanta 460R centrifuge (GMI, Ramsey, Minn.). […] The excitation wavelength was set at 485 (±20) nm and the emission wavelength set at 530 (±25) nm. To determine antioxidant values of the lipophilic fraction (ORAClipo), 5 g crude caffeine was extracted twice with 10 mL hexane/dichloromethane (50:50 v/v).

human adipocytes = experiment: Glucose uptake (3H-2-deoxyglucose) in human adipocytes; format: cell-based; details: about 0.01 mg/mL, p<0.05
Protocol: as §1, §2, §3

COX-2 enzyme = target: T1, COX-2 enzyme (Homo sapiens, UniProt P35354); experiment: COX-2 inhibition (oxygen consumption); format: biochemical
T1 sequence (P35354 18-604): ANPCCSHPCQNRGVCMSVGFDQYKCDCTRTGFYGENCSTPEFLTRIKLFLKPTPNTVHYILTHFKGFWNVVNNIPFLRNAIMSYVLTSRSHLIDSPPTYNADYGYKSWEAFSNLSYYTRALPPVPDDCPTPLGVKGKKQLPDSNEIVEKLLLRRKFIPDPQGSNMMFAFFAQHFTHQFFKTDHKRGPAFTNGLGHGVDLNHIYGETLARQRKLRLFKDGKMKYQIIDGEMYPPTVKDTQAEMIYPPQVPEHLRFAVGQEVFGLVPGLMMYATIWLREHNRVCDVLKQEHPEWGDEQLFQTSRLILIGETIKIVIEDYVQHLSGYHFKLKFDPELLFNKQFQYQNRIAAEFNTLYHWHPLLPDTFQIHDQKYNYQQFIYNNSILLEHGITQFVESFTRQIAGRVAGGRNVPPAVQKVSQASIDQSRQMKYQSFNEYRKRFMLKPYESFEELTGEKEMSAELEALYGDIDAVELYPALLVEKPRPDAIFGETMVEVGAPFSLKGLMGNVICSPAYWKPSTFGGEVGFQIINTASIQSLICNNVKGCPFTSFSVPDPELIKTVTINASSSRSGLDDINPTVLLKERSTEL
Protocol: As discussed above, the ability to inhibit the COX-2 enzyme is understood as providing anti-inflammatory activities. […] IC50 indicates the effective dose needed to achieve about 50 percent inhibition of the COX-2 enzyme.
COX-2 inhibition. Oxygen consumption was measured in the reaction chamber of an Oxytherm (Hansatech Instrumental, Norfolk, England) at 37° C. The reaction mixture consisting of 0.5 mL Tris buffer (0.1 M, pH 8.0), 5 μL heme [100 μM in dimethyl sulfoxide (DMSO)], and 10 μL of COX-2 enzyme was incubated for 1 min. Five microliters of each sample (in DMSO or ethanol) was added and the mixture was incubated for an additional 1 min. The assay was initiated by adding 5 μL arachidonic acid, and the oxygen concentration was monitored. The initial oxygen consumption rate was obtained from the kinetic curve. COX-2 inhibition was expressed as the inhibitor concentration at which the initial oxygen consumption rate decreased by 50% (IC50).

Compound | relative ORAC [1] [%] | increase in glucose uptake as compared to a control [2] | ORAChydro [3] [μmol TE/g] | increase in glucose uptake as compared to a control (human adipocytes) | COX-2 inhibitory activity (in words) (COX-2 enzyme) | COX-2 inhibitory activity (in words) (COX-2 enzyme; listed as Pure caffeine)
O=C1O[C@H]([C@@H](O)CO)C(O)=C1O [ascorbic acid] | 100 | – | – | – | – | –
O=C(/C=C/c1ccc(O)c(O)c1)O[C@@H]1C[C@](O)(C(=O)O)C[C@@H](O)[C@H]1O [chlorogenic acid] | 168 | – | – | – | – | –
Cn1c(=O)c2c(ncn2C)n(C)c1=O [pure caffeine, 1,3,7-trimethylxanthine] | – | no such effect | 5 | no such effect | no such inhibitory activity | did not inhibit COX-2 activity
